Results from US20210122730A1, “GLUCOCORTICOID RECEPTOR MODULATORS” (ORIC Pharmaceuticals, Inc., priority 2017, published 2021).

What was measured:
CYP2C8 = molecular target: T1, CYP2C8 (Homo sapiens, UniProt P10632); assay: CYP Inhibition Assay (CYP2C8, human liver microsomes, paclitaxel substrate); assay type: in vitro ADME; settings: pH 7.4; pooled human liver microsomes 0.1 mg/mL, probe substrate paclitaxel
T1 construct: Pooled human microsomes were obtained from Sekisui XenoTech, KS; tissue Sekisui XenoTech, KS; host or cells: pooled human liver microsomes
T1 sequence (P10632 1-490): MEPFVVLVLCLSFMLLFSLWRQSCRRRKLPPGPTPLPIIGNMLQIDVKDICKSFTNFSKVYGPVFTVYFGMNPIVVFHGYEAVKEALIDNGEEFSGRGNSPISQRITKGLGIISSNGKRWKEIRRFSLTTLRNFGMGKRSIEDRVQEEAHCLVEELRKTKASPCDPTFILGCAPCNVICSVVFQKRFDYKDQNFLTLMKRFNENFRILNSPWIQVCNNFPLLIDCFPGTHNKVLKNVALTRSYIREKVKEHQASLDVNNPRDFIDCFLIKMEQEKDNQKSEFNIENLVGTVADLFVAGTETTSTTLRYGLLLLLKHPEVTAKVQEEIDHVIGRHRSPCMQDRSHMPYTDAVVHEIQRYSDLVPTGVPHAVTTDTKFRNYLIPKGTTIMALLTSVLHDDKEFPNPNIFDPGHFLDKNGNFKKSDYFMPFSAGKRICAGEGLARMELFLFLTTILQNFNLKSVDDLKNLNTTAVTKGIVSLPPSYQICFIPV
In short: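 CYP2C8 activity read as 6α-hydroxypaclitaxel formation by LC-MS/MS, with % inhibition versus vehicle control. Reactions ran 5 min at 37° C, pH 7.4 phosphate buffer, 0.1 mg/mL pooled human liver microsomes, 1 mM NADPH, duplicate wells.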

GR = molecular target: T2, GR (Homo sapiens, UniProt P04150); assay: In Vitro GR Luciferase Reporter Assay (antagonist mode, CHO-K1-GR-MMTV-Luc reporter cells); assay type: cell-based; settings: antagonist mode, 10 nM Dexamethasone
T2 construct: expressed in transfected cells; host or cells: CHO-K1
T2 sequence (P04150 1-777): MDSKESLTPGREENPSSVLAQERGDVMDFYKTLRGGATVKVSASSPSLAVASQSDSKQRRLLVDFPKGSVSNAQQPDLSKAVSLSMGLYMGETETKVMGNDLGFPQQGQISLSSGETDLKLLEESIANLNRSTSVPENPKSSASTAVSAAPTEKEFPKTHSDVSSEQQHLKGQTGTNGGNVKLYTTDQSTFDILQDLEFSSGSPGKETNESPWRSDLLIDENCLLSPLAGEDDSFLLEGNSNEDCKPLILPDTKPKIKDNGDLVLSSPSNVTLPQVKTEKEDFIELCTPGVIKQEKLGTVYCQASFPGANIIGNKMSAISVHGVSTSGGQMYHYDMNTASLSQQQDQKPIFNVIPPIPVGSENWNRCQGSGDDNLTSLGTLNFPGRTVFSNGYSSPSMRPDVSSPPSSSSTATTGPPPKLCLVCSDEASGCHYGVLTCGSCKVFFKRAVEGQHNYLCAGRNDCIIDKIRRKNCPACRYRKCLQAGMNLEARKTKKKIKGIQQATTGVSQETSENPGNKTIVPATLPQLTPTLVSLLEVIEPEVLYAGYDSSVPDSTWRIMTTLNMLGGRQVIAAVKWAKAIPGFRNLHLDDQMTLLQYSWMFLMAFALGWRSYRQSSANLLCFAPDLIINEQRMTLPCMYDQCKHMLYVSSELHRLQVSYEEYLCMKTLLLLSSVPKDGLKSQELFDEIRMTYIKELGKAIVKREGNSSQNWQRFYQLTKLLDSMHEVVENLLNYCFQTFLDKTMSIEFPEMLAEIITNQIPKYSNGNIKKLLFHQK
In short: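 Antagonist mode: compounds (8 serial 1:5 dilutions) added to GR-MMTV-luciferase CHO-K1 reporter cells co-exposed to 10 nM dexamethasone final, in phenol red-free DMEM plus 10% CSS. After roughly 18-24 h at 37° C, OneGlo luminescence read and IC50 calculated.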

SMILES	inhibition at 5 min (CYP2C8)	IC50 (GR)
Cn1cnc(S(=O)(=O)N(C2CC2)[C@H]2CCC3=Cc4c(cnn4-c4ccc(F)cc4)C[C@]3(C(=O)c3ncc(C(F)(F)F)s3)C2)c1 [Example 201, N-cyclopropyl-N-((4aS,6S)-1-(4-fluorophenyl)-4a-(5 (trifluoromethyl)thiazole-2-carbonyl)-4,4a,5,6,7,8-hexahydro-1H-benzo[f]indazol-6-yl)-1-methyl-1H-imidazole-4-sulfonamide]	≤ 25%	≤ 100 nM
Cn1cc(S(=O)(=O)[C@@]2(F)CCC3=Cc4c(cnn4-c4ccc(F)cc4)C[C@]3(C(=O)c3cc(C(F)(F)F)ccn3)C2)cn1 [Example 202, ((4aS,6S)-6-fluoro-1-(4-fluorophenyl)-6-((1-methyl-1H-pyrazol-4-yl)sulfonyl)-1,4,5,6,7,8-hexahydro-4aH-benzo[f]indazol-4a-yl)(4-(trifluoromethyl)pyridin-2-yl)methanone]	25 to 50%	≤ 100 nM
Cn1ccc(S(=O)(=O)N(C2CCC2)[C@H]2CCC3=Cc4c(cnn4-c4ccc(F)cc4)C[C@]3(C(=O)c3ncc(C(F)(F)F)s3)C2)n1 [Example 203, N-cyclobutyl-N-((4aS,6S)-1-(4-fluorophenyl)-4a-(5 (trifluoromethyl)thiazole-2-carbonyl)-4,4a,5,6,7,8-hexahydro-1H-benzo[f]indazol-6-yl)-1-methyl-1H-pyrazole-3-sulfonamide]	25 to 50%	≤ 100 nM
O=C(c1cc(C(F)(F)F)ccn1)[C@]12Cc3cnn(-c4ccc(F)cc4)c3C=C1CC[C@H](N(C1COC1)S(=O)(=O)c1ccc(F)cc1)C2 [Example 204, 4-fluoro-N-((4aS,6S)-1-(4-fluorophenyl)-4a-(4-(trifluoromethyl)picolinoyl)-4,4a,5,6,7,8-hexahydro-1H-benzo[f]indazol-6-yl)-N-(oxetan-3-yl)benzenesulfonamide]	25 to 50%	≤ 100 nM
Cn1ccc(S(=O)(=O)N(C2CCC2)[C@H]2CCC3=Cc4c(cnn4-c4ccc(F)cc4)C[C@]3(C(=O)c3cc(C(F)(F)F)ccn3)C2)n1 [Example 206, N-cyclobutyl-N-((4aS,6S)-1-(4-fluorophenyl)-4a-(4-(trifluoromethyl)picolinoyl)-4,4a,5,6,7,8-hexahydro-1H-benzo[f]indazol-6-yl)-1-methyl-1H-pyrazole-3-sulfonamide]	25 to 50%	≤ 100 nM
CC(C)N([C@H]1CCC2=Cc3c(cnn3-c3ccc(F)cc3)C[C@]2(C(=O)c2cc(C(F)(F)F)ccn2)C1)S(=O)(=O)c1ccc(F)cc1 [Example 210, 4-fluoro-N-((4aS,6S)-1-(4-fluorophenyl)-4a-(4-(trifluoromethyl)picolinoyl)-4,4a,5,6,7,8-hexahydro-1H-benzo[f]indazol-6-yl)-N-isopropylbenzenesulfonamide]	75 to 90%	≤ 100 nM
CC(C)CN([C@H]1CCC2=Cc3c(cnn3-c3ccc(F)cc3)C[C@]2(C(=O)c2ncc(C(F)(F)F)s2)C1)S(=O)(=O)c1ccn(C)n1 [Example 212, N-((4aS,6S)-1-(4-fluorophenyl)-4a-(5-(trifluoromethyl)thiazole-2-carbonyl)-4,4a,5,6,7,8-hexahydro-1H-benzo[f]indazol-6-yl)-N-isobutyl-1-methyl-1H-pyrazole-3-sulfonamide]	25 to 50%	≤ 100 nM
CCN([C@H]1CCC2=Cc3c(cnn3-c3ccc(F)cc3)C[C@]2(C(=O)c2cc(C(F)(F)F)ccn2)C1)S(=O)(=O)c1cn(C)cn1 [Example 214, N-ethyl-N-((4aS,6S)-1-(4-fluorophenyl)-4a-(4-(trifluoromethyl)picolinoyl)-4,4a,5,6,7,8-hexahydro-1H-benzo[f]indazol-6-yl)-1-methyl-1H-imidazole-4-sulfonamide]	≤ 25%	≤ 100 nM
CC(C)CN([C@H]1CCC2=Cc3c(cnn3-c3ccc(F)cc3)C[C@]2(C(=O)c2cc(C(F)(F)F)ccn2)C1)S(=O)(=O)c1ccn(C)n1 [Example 215, N-((4aS,6S)-1-(4-fluorophenyl)-4a-(4-(trifluoromethyl)picolinoyl)-4,4a,5,6,7,8-hexahydro-1H-benzo[f]indazol-6-yl)-N-isobutyl-1-methyl-1H-pyrazole-3-sulfonamide]	50 to 75%	≤ 100 nM
CCN([C@H]1CCC2=Cc3c(cnn3-c3ccc(F)cc3)C[C@]2(C(=O)c2ncc(C(F)(F)F)s2)C1)S(=O)(=O)c1cn(C)cn1 [Example 216, N-ethyl-N-((4aS,6S)-1-(4-fluorophenyl)-4a-(5-(trifluoromethyl)thiazole-2-carbonyl)-4,4a,5,6,7,8-hexahydro-1H-benzo[f]indazol-6-yl)-1-methyl-1H-imidazole-4-sulfonamide]	25 to 50%	≤ 100 nM
Cn1cnc(S(=O)(=O)N(CC2CC2)[C@H]2CCC3=Cc4c(cnn4-c4ccc(F)cc4)C[C@]3(C(=O)c3ncc(C(F)(F)F)s3)C2)c1 [Example 217, N-(cyclopropylmethyl)-N-((4aS,6S)-1-(4-fluorophenyl)-4a-(5-(trifluoromethyl)thiazole-2-carbonyl)-4,4a,5,6,7,8-hexahydro-1H-benzo[f]indazol-6-yl)-1-methyl-1H-imidazole-4-sulfonamide]	25 to 50%	≤ 100 nM
Cn1cc(S(=O)(=O)N(C2CC2)[C@H]2CCC3=Cc4c(cnn4-c4ccc(F)cc4)C[C@]3(C(=O)c3ncc(C(F)(F)F)s3)C2)nn1 [Example 219, N-cyclopropyl-N-((4aS,6S)-1-(4-fluorophenyl)-4a-(5 (trifluoromethyl)thiazole-2-carbonyl)-4,4a,5,6,7,8-hexahydro-1H-benzo[f]indazol-6-yl)-1-methyl-1H-1,2,3-triazole-4-sulfonamide]	25 to 50%	≤ 100 nM
CC(C)N([C@H]1CCC2=Cc3c(cnn3-c3ccc(F)cc3)C[C@]2(C(=O)c2cc(C(F)(F)F)ccn2)C1)S(=O)(=O)c1cn(C)cn1 [Example 221, N-((4aS,6S)-1-(4-fluorophenyl)-4a-(4-(trifluoromethyl)picolinoyl)-4,4a,5,6,7,8-hexahydro-1H-benzo[f]indazol-6-yl)-N-isopropyl-1-methyl-1H-imidazole-4-sulfonamide]	50 to 75%	≤ 100 nM
Cn1cc(S(=O)(=O)N(C2CC2)[C@H]2CCC3=Cc4c(cnn4-c4ccc(F)cc4)C[C@]3(C(=O)c3cc(C(F)(F)F)ccn3)C2)nn1 [Example 222, N-cyclopropyl-N-((4aS,6S)-1-(4-fluorophenyl)-4a-(4-(trifluoromethyl)picolinoyl)-4,4a,5,6,7,8-hexahydro-1H-benzo[f]indazol-6-yl)-1-methyl-1H-1,2,3-triazole-4-sulfonamide]	50 to 75%	≤ 100 nM
O=C(c1cc(C(F)(F)F)ccn1)[C@]12Cc3cnn(-c4ccc(F)cc4)c3C=C1CC[C@H](N(C1CC1)S(=O)(=O)c1ccc(Cl)nc1)C2 [Example 223, 6-chloro-N-cyclopropyl-N-((4aS,6S)-1-(4-fluorophenyl)-4a-(4-(trifluoromethyl)picolinoyl)-4,4a,5,6,7,8-hexahydro-1H-benzo[f]indazol-6-yl)pyridine-3-sulfonamide]	25 to 50%	≤ 100 nM
Cn1ccc(S(=O)(=O)N(C2CC2)[C@H]2CCC3=Cc4c(cnn4-c4ccc(F)cc4)C[C@]3(C(=O)c3cc(F)ccn3)C2)n1 [Example 224, N-cyclopropyl-N-((4aS,6S)-1-(4-fluorophenyl)-4a-(4-fluoropicolinoyl)-4,4a,5,6,7,8-hexahydro-1H-benzo[f]indazol-6-yl)-1-methyl-1H-pyrazole-3-sulfonamide]	25 to 50%	≤ 100 nM
